# Measurements as given in article PMC11576293, “New series of 4,6-diaryl pyrimidines: facile synthesis and antiproliferative activity as dual EGFR/VEGFR-2 inhibitors” (Frontiers in Chemistry, 2024).
# What was measured:
# Assay in all cases: NCI-60 single-dose screen
# Format in all cases: cell-based
# [1] = tested on: 786-0; conditions: Homo sapiens, single dose 10 µM, '-' = no inhibition, read-out: % Growth Inhibition
# How it was run: (§1)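 Single concentration of 10 μM applied to every line of the 60-cell-line NCI panel. Testing performed by NCI DTP.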
# [2] = tested on: A498; conditions: Homo sapiens, single dose 10 µM, '-' = no inhibition, read-out: % Growth Inhibition
# How it was run: as §1
# [3] = tested on: A549/ATCC; conditions: Homo sapiens, single dose 10 µM, '-' = no inhibition, read-out: % Growth Inhibition
# How it was run: as §1
# [4] = tested on: ACHN 1; conditions: Homo sapiens, single dose 10 µM, '-' = no inhibition, read-out: % Growth Inhibition
# How it was run: as §1
# [5] = tested on: BT-549; conditions: Homo sapiens, single dose 10 µM, '-' = no inhibition, read-out: % Growth Inhibition
# How it was run: as §1
# [6] = tested on: CAKI-1; conditions: Homo sapiens, single dose 10 µM, '-' = no inhibition, read-out: % Growth Inhibition
# How it was run: as §1
# [7] = tested on: COLO 205; conditions: Homo sapiens, single dose 10 µM, '-' = no inhibition, read-out: % Growth Inhibition
# How it was run: as §1
# [8] = tested on: DU-145; conditions: Homo sapiens, single dose 10 µM, '-' = no inhibition, read-out: % Growth Inhibition
# How it was run: as §1
# [9] = tested on: EKVX; conditions: Homo sapiens, single dose 10 µM, '-' = no inhibition, read-out: % Growth Inhibition
# How it was run: as §1
# [10] = tested on: HCT-15; conditions: Homo sapiens, single dose 10 µM, '-' = no inhibition, read-out: % Growth Inhibition
# How it was run: as §1
# [11] = tested on: HL-60(TB); conditions: Homo sapiens, single dose 10 µM, '-' = no inhibition, read-out: % Growth Inhibition
# [12] = tested on: HOP-62; conditions: Homo sapiens, single dose 10 µM, '-' = no inhibition, read-out: % Growth Inhibition
# How it was run: as §1
# [13] = tested on: HOP-92; conditions: Homo sapiens, single dose 10 µM, '-' = no inhibition, read-out: % Growth Inhibition
# How it was run: as §1
# [14] = tested on: HT29; conditions: Homo sapiens, HT-29, single dose 10 µM, '-' = no inhibition, read-out: % Growth Inhibition
# How it was run: as §1
# [15] = tested on: IGROV1; conditions: Homo sapiens, IGROV-1, single dose 10 µM, '-' = no inhibition, read-out: % Growth Inhibition
# How it was run: as §1
# [16] = tested on: KM12; conditions: Homo sapiens, single dose 10 µM, '-' = no inhibition, read-out: % Growth Inhibition
# How it was run: as §1
# [17] = tested on: LOX IMVI; conditions: Homo sapiens, single dose 10 µM, '-' = no inhibition, read-out: % Growth Inhibition
# How it was run: as §1
# [18] = tested on: M14; conditions: Homo sapiens, single dose 10 µM, '-' = no inhibition, read-out: % Growth Inhibition
# How it was run: as §1
# [19] = tested on: MALME-3M; conditions: Homo sapiens, single dose 10 µM, '-' = no inhibition, read-out: % Growth Inhibition
# How it was run: as §1
# [20] = tested on: MDA-MB-468; conditions: Homo sapiens, single dose 10 µM, '-' = no inhibition, read-out: % Growth Inhibition
# How it was run: as §1
# [21] = tested on: MDA-MB231/ATCC; conditions: Homo sapiens, MDA-MB-231, single dose 10 µM, '-' = no inhibition, read-out: % Growth Inhibition
# How it was run: as §1
# [22] = tested on: MOLT-4; conditions: Homo sapiens, single dose 10 µM, '-' = no inhibition, read-out: % Growth Inhibition
# How it was run: as §1
# [23] = tested on: NCI-H23; conditions: Homo sapiens, single dose 10 µM, '-' = no inhibition, read-out: % Growth Inhibition
# How it was run: as §1
# [24] = tested on: NCI-H322M; conditions: Homo sapiens, single dose 10 µM, '-' = no inhibition, read-out: % Growth Inhibition
# How it was run: as §1
# [25] = tested on: NCI-H460; conditions: Homo sapiens, single dose 10 µM, '-' = no inhibition, read-out: % Growth Inhibition
# How it was run: as §1
# [26] = tested on: NCI-H522; conditions: Homo sapiens, single dose 10 µM, '-' = no inhibition, read-out: % Growth Inhibition
# How it was run: as §1
# [27] = tested on: NCI/ADR-RES; conditions: Homo sapiens, single dose 10 µM, '-' = no inhibition, read-out: % Growth Inhibition
# How it was run: as §1
# [28] = tested on: OVCAR-3; conditions: Homo sapiens, single dose 10 µM, '-' = no inhibition, read-out: % Growth Inhibition
# How it was run: as §1
# [29] = tested on: OVCAR-4; conditions: Homo sapiens, single dose 10 µM, '-' = no inhibition, read-out: % Growth Inhibition
# How it was run: as §1
# [30] = tested on: OVCAR-5; conditions: Homo sapiens, single dose 10 µM, '-' = no inhibition, read-out: % Growth Inhibition
# How it was run: as §1
# [31] = tested on: PC-3; conditions: Homo sapiens, single dose 10 µM, '-' = no inhibition, read-out: % Growth Inhibition
# How it was run: as §1
# [32] = tested on: RPMI-8226; conditions: Homo sapiens, single dose 10 µM, '-' = no inhibition, read-out: % Growth Inhibition
# How it was run: as §1
# [33] = tested on: RXF 393; conditions: Homo sapiens, single dose 10 µM, '-' = no inhibition, read-out: % Growth Inhibition
# How it was run: as §1
# [34] = tested on: SF-295; conditions: Homo sapiens, single dose 10 µM, '-' = no inhibition, read-out: % Growth Inhibition
# How it was run: as §1
# [35] = tested on: SF-539; conditions: Homo sapiens, single dose 10 µM, '-' = no inhibition, read-out: % Growth Inhibition
# How it was run: as §1
# [36] = tested on: SK-MEL-28; conditions: Homo sapiens, single dose 10 µM, '-' = no inhibition, read-out: % Growth Inhibition
# How it was run: as §1
# [37] = tested on: SK-OV-3; conditions: Homo sapiens, single dose 10 µM, '-' = no inhibition, read-out: % Growth Inhibition
# How it was run: as §1
# [38] = tested on: SNB-19; conditions: Homo sapiens, single dose 10 µM, '-' = no inhibition, read-out: % Growth Inhibition
# How it was run: as §1
# [39] = tested on: SNB-75; conditions: Homo sapiens, single dose 10 µM, '-' = no inhibition, read-out: % Growth Inhibition
# How it was run: as §1
# [40] = tested on: SR; conditions: Homo sapiens, single dose 10 µM, '-' = no inhibition, read-out: % Growth Inhibition
# How it was run: as §1
# [41] = tested on: SW-620; conditions: Homo sapiens, single dose 10 µM, '-' = no inhibition, read-out: % Growth Inhibition
# How it was run: as §1
# [42] = tested on: T-47D; conditions: Homo sapiens, T47D, single dose 10 µM, '-' = no inhibition, read-out: % Growth Inhibition
# How it was run: as §1
# [43] = tested on: TK-10; conditions: Homo sapiens, single dose 10 µM, '-' = no inhibition, read-out: % Growth Inhibition
# How it was run: as §1
# [44] = tested on: U251; conditions: Homo sapiens, U-251, single dose 10 µM, '-' = no inhibition, read-out: % Growth Inhibition
# How it was run: as §1
# [45] = tested on: UACC-257; conditions: Homo sapiens, single dose 10 µM, '-' = no inhibition, read-out: % Growth Inhibition
# How it was run: as §1
# [46] = tested on: UACC-62; conditions: Homo sapiens, single dose 10 µM, '-' = no inhibition, read-out: % Growth Inhibition
# How it was run: as §1
# [47] = tested on: UO-31; conditions: Homo sapiens, single dose 10 µM, '-' = no inhibition, read-out: % Growth Inhibition
# How it was run: as §1
structure (smiles),measurement,setting,value
"COc1ccc(-c2cc(-c3ccc(Cl)cc3)nc(SC)n2)cc1OC [Compound 23, 4-(4-Chlorophenyl)-6-(3,4-dimethoxyphenyl)-2-(methylthio)pyrimidine]",inhibition at 10 µM,[1],6.05%
same,inhibition at 10 µM,[2],< 0%
same,inhibition at 10 µM,[3],19.8%
same,inhibition at 10 µM,[4],9.14%
same,inhibition at 10 µM,[5],4.8%
same,inhibition at 10 µM,[6],24%
same,inhibition at 10 µM,[7],8.14%
same,inhibition at 10 µM,[8],9.83%
same,inhibition at 10 µM,[9],23.1%
same,inhibition at 10 µM,[10],28%
same,inhibition at 10 µM,[11],18.4%
same,inhibition at 10 µM,[12],< 0%
same,inhibition at 10 µM,[13],< 0%
same,inhibition at 10 µM,[14],26.4%
same,inhibition at 10 µM,[15],< 0%
same,inhibition at 10 µM,[16],25.4%
same,inhibition at 10 µM,[17],15%
same,inhibition at 10 µM,[18],0.3%
same,inhibition at 10 µM,[19],< 0%
same,inhibition at 10 µM,[20],6.77%
same,inhibition at 10 µM,[21],23.2%
same,inhibition at 10 µM,[22],26.7%
same,inhibition at 10 µM,[23],7.41%
same,inhibition at 10 µM,[24],< 0%
same,inhibition at 10 µM,[25],11.4%
same,inhibition at 10 µM,[26],31.2%
same,inhibition at 10 µM,[27],14.9%
same,inhibition at 10 µM,[28],< 0%
same,inhibition at 10 µM,[29],27.5%
same,inhibition at 10 µM,[30],11.9%
same,inhibition at 10 µM,[31],15.7%
same,inhibition at 10 µM,[32],20.1%
same,inhibition at 10 µM,[33],< 0%
same,inhibition at 10 µM,[34],12.4%
same,inhibition at 10 µM,[35],15.7%
same,inhibition at 10 µM,[36],8.87%
same,inhibition at 10 µM,[37],2.94%
same,inhibition at 10 µM,[38],3.67%
same,inhibition at 10 µM,[39],< 0%
same,inhibition at 10 µM,[40],34%
same,inhibition at 10 µM,[41],1.5%
same,inhibition at 10 µM,[42],25.5%
same,inhibition at 10 µM,[43],< 0%
same,inhibition at 10 µM,[44],11.6%
same,inhibition at 10 µM,[45],10%
same,inhibition at 10 µM,[46],< 0%
same,inhibition at 10 µM,[47],22.9%
